Here are results for 21 compounds from patent US12312332B2 (Merck Sharp & Dohme LLC., priority 2019, dated 2025).

SMILES strings stand for the structures.

The assay has as its target T1, human OX2R (Homo sapiens, UniProt O43614).
T1 construct: expressed in transfected cells; host or cells: Chinese hamster ovary (CHO) cells, kept under G418 selection
T1 sequence (O43614 1-444): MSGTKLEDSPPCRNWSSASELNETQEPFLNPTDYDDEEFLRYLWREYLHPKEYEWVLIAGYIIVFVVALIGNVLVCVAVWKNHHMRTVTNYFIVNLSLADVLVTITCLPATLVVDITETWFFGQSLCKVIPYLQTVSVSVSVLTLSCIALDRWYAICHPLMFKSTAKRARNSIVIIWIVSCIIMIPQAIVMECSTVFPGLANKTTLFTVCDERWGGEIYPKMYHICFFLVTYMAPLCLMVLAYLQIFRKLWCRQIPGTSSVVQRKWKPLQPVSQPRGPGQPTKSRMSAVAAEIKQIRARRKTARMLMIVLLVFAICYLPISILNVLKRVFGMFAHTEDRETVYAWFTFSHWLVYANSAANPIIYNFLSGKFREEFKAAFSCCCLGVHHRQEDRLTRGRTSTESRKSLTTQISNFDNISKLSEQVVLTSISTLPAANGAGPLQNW
In words: IPOne (IP-One) orexin receptor agonist assay in CHO cells expressing human OX2R. It is filed as cell-based. As to conditions: for EC50: CHO cells expressing human OX2R, IP-One detection, 2 hours incubation, four parameter logistic fit, read-out: OX2R Potency, EC50; for % max agonist effect (Emax): human OX2R, percentage of sample raw value/mean max effect (reference compound at 1 uM with 100% activity). The source says:
The utility of the compounds in accordance with the present invention as orexin receptor OX1R and/or OX2R agonists may be readily determined without undue experimentation by methodology well known in the art. Both the OX1R and/or OX2R G-coupled protein receptors (GPCRs) couple through the Gaq signaling pathway, which ultimately promotes calcium mobilization via inositol triphosphate (IP3) production. […] The utility of the compounds in accordance with the present invention as orexin receptor OX1R and/or OX2R agonists may be determined utilizing this assay.
In a typical experiment, the OX1 and OX2 receptor agonist activity is determined in accordance with the following general experimental method. Chinese hamster ovary (CHO) cells expressing human OX1R and/or the human OX2R were grown in Iscove's modified DMEM containing glutaMAX™, 1% G418, 100 U/mL penicillin, 100 μg/mL streptomycin and 10% heat-inactivated qualified fetal bovine serum (FBS). […] During this incubation, IP-one detection reagents were prepared (38:1:1 lysis buffer:D2:AB-cryptate reagents).
For each compound, data were fit to a four parameter logistic fit (ActivityBase software) and the EC50 was reported as the inflection point of the resulting curve. Percent effect for each test compound was determined as the percentage of sample raw value/mean max effect, where the mean max effect was derived from the mean raw value of 32 control wells per assay plate (using Orexin A (cat #003-30) at 1 μM for human OX1R and a reference compound at 1 uM with 100% activity previously established by comparison to Orexin A for human OX2R). The intrinsic orexin receptor agonist activity of a compound which may be used in the present invention may be determined by these assays.

As to `CS(=O)(=O)N[C@H]1CCN(c2ccc(F)c(C(F)F)c2)[C@H]1CO[C@H]1CC[C@@H](c2ccccc2)CC1` [Example 21, N-((2R,3S)-1-(3-(difluoromethyl)-4-fluorophenyl)-2-((((CIS)-4-phenylcyclohexyl)oxy)methyl)pyrrolidin-3-yl)methanesulfonamide], the 50% effective concentration (EC50) turned out to be 8.49 µM and the “% max agonist effect (Emax)” value is listed as 57.0%.
`CS(=O)(=O)N[C@H]1CCN(c2ccc(C(F)F)cc2F)[C@H]1CO[C@H]1CC[C@@H](c2ccccc2)CC1` [Example 22, N-((2R,3S)-1-(4-(difluoromethyl)-2-fluorophenyl)-2-((((CIS)-4-phenylcyclohexyl)oxy)methyl)pyrrolidin-3-yl)methanesulfonamide]: the EC50 is greater than 10 µM and the “% max agonist effect (Emax)” value is 57.5%.
In the case of `CS(=O)(=O)N[C@H]1CCN(c2ccc(=O)n(C(F)F)c2)[C@H]1CO[C@H]1CC[C@@H](c2ccccc2)CC1` [Example 23, N-((2R,3S)-1-(1-(difluoromethyl)-6-oxo-1,6-dihydropyridin-3-yl)-2-((((CIS)-4-phenylcyclohexyl)-oxy)methyl)pyrrolidin-3 - yl)methanesulfonamide], the concentration for a half-maximal effect (EC50) is 4.64 µM and the “% max agonist effect (Emax)” value is given as 81.2%.
In the case of `CS(=O)(=O)N[C@H]1CCN(c2ccc(C(F)F)nc2)[C@H]1CO[C@H]1CC[C@@H](c2ccccc2)CC1` [Example 24, N-((2R,3S)-1-(6-(difluoromethyl)pyridin-3-yl)-2-((((CIS)-4-phenylcyclohexyl)-oxy)methyl)pyrrolidin-3-yl)methanesulfonamide], the half-maximal effective concentration (EC50) came out at 0.05 µM and the “% max agonist effect (Emax)” value came to 100.7%.
Taken in the same sequence, the figures for `CS(=O)(=O)N[C@H]1CCN(c2ccnc(C#N)c2)[C@H]1CO[C@H]1CC[C@@H](c2ccccc2)CC1` [Example 25, N-((2R,3S)-1-(2-cyanopyridin-4-yl)-2-((((CIS)-4-phenylcyclohexyl)oxy)methyl)pyrrolidin-3-yl)methanesulfonamide] were 5.77 µM and 78.6%.
As for `CS(=O)(=O)N[C@H]1CCN(c2cncs2)[C@H]1CO[C@H]1CC[C@@H](c2ccccc2)CC1` [Example 26, N-((2R,3S)-2-((((CIS)-4-phenylcyclohexyl)oxy)methyl)-1-(thiazol-5-yl)pyrrolidin-3-yl)methanesulfonamide], the EC50 came to 0.444 µM and the “% max agonist effect (Emax)” value is reported as 99.0%.
As for `CS(=O)(=O)N[C@H]1CCN(c2nccs2)[C@H]1CO[C@H]1CC[C@@H](c2ccccc2)CC1` [Example 27, N-((2R,3S)-2-((((CIS)-4-phenylcyclohexyl)oxy)methyl)-1-(thiazol-2-yl)pyrrolidin-3-yl)methanesulfonamide], the 50% effective concentration (EC50) is 0.0702 µM and the “% max agonist effect (Emax)” value is on record as 98.9%.
With `Cn1ccnc1N1CC[C@H](NS(C)(=O)=O)[C@@H]1CO[C@H]1CC[C@@H](c2ccccc2)CC1` [Example 28, N-((2R,3S)-1-(1-methyl-1H-imidazol-2-yl)-2-((((CIS)-4-phenylcyclohexyl)oxy)methyl)pyrrolidin-3-yl)methanesulfonamide], the 50% effective concentration (EC50) stood at 0.105 µM and the “% max agonist effect (Emax)” value was 100.0%.
Consider `Cc1cnc(N2CC[C@H](NS(C)(=O)=O)[C@@H]2CO[C@H]2CC[C@@H](c3ccccc3)CC2)n1C` [Example 29, N-((2R,3S)-1-(1,5-dimethyl-1H-imidazol-2-yl)-2-((((CIS)-4-phenylcyclohexyl)oxy)methyl)pyrrolidin-3-yl)methanesulfonamide], for which the 50% effective concentration (EC50) is 0.366 µM and the “% max agonist effect (Emax)” value was determined as 100.0%.
On to `Cc1c(N2CC[C@H](NS(C)(=O)=O)[C@@H]2CO[C@H]2CC[C@@H](c3ccccc3)CC2)cnn1C` [Example 30, N-((2R,3S)-1-(1,5-dimethyl-1H-pyrazol-4-yl)-2-((((CIS)-4-phenylcyclohexyl)oxy)methyl)pyrrolidin-3-yl)methanesulfonamide], for which the EC50 came out at 0.149 µM and the “% max agonist effect (Emax)” value is on record as 100.0%.
Taken in the same sequence, the figures for `Cn1nnnc1N1CC[C@H](NS(C)(=O)=O)[C@@H]1CO[C@H]1CC[C@@H](c2ccccc2)CC1` [Example 31, N-((2R,3S)-1-(1-methyl-1H-tetrazol-5-yl)-2-((((CIS)-4-phenylcyclohexyl)oxy)methyl)pyrrolidin-3-yl)methanesulfonamide] were 0.0026 µM and 101.5%.
For `Cc1ncc(N2CC[C@H](NS(C)(=O)=O)[C@@H]2CO[C@H]2CC[C@@H](c3ccccc3)CC2)n1C` [Example 32, N-((2R,3S)-1-(1,2-dimethyl-1H-imidazol-5-yl)-2-((((CIS)-4-phenylcyclohexyl)oxy)methyl)pyrrolidin-3-yl)methanesulfonamide] the same measures were 0.037 µM and 100.2%.
With `CS(=O)(=O)N[C@H]1CCN(c2ncns2)[C@H]1CO[C@H]1CC[C@@H](c2ccccc2)CC1` [Example 33, N-((2R,3S)-2-((((CIS)-4-phenylcyclohexyl)oxy)methyl)-1-(1,2,4-thiadiazol-5-yl)pyrrolidin-3-yl)methanesulfonamide], the 50% effective concentration (EC50) is 0.146 µM and the “% max agonist effect (Emax)” value worked out at 101.0%.
Take `CS(=O)(=O)N[C@H]1CCN(c2ccc(C(F)(F)F)nc2)[C@H]1CO[C@H]1CC[C@@H](c2ccccc2)CC1` [Example 34, N-((2R,3S)-2-((((CIS)-4-phenylcyclohexyl)oxy)methyl)-1-(6-(trifluoromethyl)pyridin-3-yl)pyrrolidin-3-yl)methanesulfonamide]: the concentration for a half-maximal effect (EC50) came out at 0.07 µM and the “% max agonist effect (Emax)” value is reported as 99.6%.
Consider `CS(=O)(=O)N[C@H]1CCN(c2ccc(OC(F)F)cn2)[C@H]1CO[C@H]1CC[C@@H](c2ccccc2)CC1` [Example 35, N-((2R,3S)-1-(5-(difluoromethoxy)pyridin-2-yl)-2-((((CIS)-4-phenylcyclohexyl)oxy)methyl)pyrrolidin-3-yl)methanesulfonamide], for which the 50% effective concentration (EC50) was 0.176 µM and the “% max agonist effect (Emax)” value is on record as 104.3%.
Consider `CS(=O)(=O)N[C@H]1CCN(c2ccc(OCCF)cc2)[C@H]1CO[C@H]1CC[C@@H](c2ccccc2)CC1` [Example 36, N-((2R,3S)-1-(4-(2-fluoroethoxy)phenyl)-2-((((CIS)-4-phenylcyclohexyl)oxy)methyl)pyrrolidin-3-yl)methanesulfonamide], for which the concentration giving a half-maximal response (EC50) amounted to 2.79 µM and the “% max agonist effect (Emax)” value was 54.1%.
Regarding `Cc1nnc(N2CC[C@H](NS(C)(=O)=O)[C@@H]2CO[C@H]2CC[C@@H](c3ccccc3)CC2)o1` [Example 37, N-((2R,3 S)-1-(5-methyl-1,3,4-oxadiazol-2-yl)-2-((((CIS)-4-phenylcyclohexyl)oxy)methyl)pyrrolidin-3-yl)methanesulfonamide], the EC50 amounted to 0.67 µM and the “% max agonist effect (Emax)” value is reported as 101.5%.
In the case of `CS(=O)(=O)N[C@H]1CCN(c2ncccn2)[C@H]1CO[C@H]1CC[C@@H](c2ccccc2)CC1` [Example 38, N-((2R,3S)-2-((((CIS)-4-phenylcyclohexyl)oxy)methyl)-1-(pyrimidin-2-yl)pyrrolidin-3-yl)methanesulfonamide], the half-maximal effective concentration (EC50) was found to be 0.784 µM and the “% max agonist effect (Emax)” value is listed as 97.1%.
For `CS(=O)(=O)N[C@H]1CCN(c2occc2C#N)[C@H]1CO[C@H]1CC[C@@H](c2ccccc2)CC1` [Example 39, N-((2R,3 S)-1-(3-cyanofuran-2-yl)-2-((((CIS)-4-phenylcyclohexyl)oxy)methyl)pyrrolidin-3-yl)methanesulfonamide] the same measures were 0.613 µM and 98.4%.
Turning to `Cn1cc(N2CC[C@H](NS(C)(=O)=O)[C@@H]2CO[C@H]2CC[C@@H](c3ccccc3)CC2)cn1` [Example 40, N-((2R,3S)-1-(1-methyl-1H-pyrazol-4-yl)-2-((((CIS)-4-phenylcyclohexyl)oxy)methyl)pyrrolidin-3-yl)methanesulfonamide], the EC50 is 0.431 µM and the “% max agonist effect (Emax)” value is listed as 98.8%.
Taken in the same sequence, the figures for `CS(=O)(=O)N[C@H]1CCN(c2cnc(C(F)(F)F)nc2)[C@H]1CO[C@H]1CC[C@@H](c2ccccc2)CC1` [Example 41] were 0.172 µM and 100.2%.
